Measured values as given in patent US20210395210A1, “INHIBITION OF BACTERIAL CHAPERONIN SYSTEMS” (THE TRUSTEES OF INDIANA UNIVERSITY, priority 2018, published 2021).
Where two headings read alike, the source gives them in different places.

What was measured:
[1] = test system: Methicillin resistant S. aureus (MRSA) (ATCC BAA-44); test: Bacterial proliferation assay, MRSA; assay type: cell-based, Staphylococcus aureus; settings: Staphylococcus aureus, MRSA
Description: (§1) Bacterial Strains: Enterococcus faecium—(Orla-Jensen) Schleifer and Kilpper-Balz strain NCTC 7171 (ATCC 19434); Drug sensitive Staphylococcus aureus—Rosenbranch strain Seattle 1945 (ATCC 25923); Methicillin resistant S. aureus (MRSA)—Rosenbach strain HPV107 (ATCC BAA-44); Klebsiella Pneumonia—(Schroeter) Trevisan strain NCTC 9633 (ATCC 13883); Acinetobacter baumannii—Bouvet and Grimont strain 2208 (ATCC 19606); Pseudomonas aeruginosa—(Schroeter) Migula strain NCTC 10332 (ATCC 10145); Enterobacter cloacae—E. cloacae, subsp. cloacae (Jordan) Hormaeche and Edwards strain CDC 442-68 (ATCC 13047).
(§2) Growth Media: All bacteria were grown in Brain Heart Infusion (BHI) broth/agar (Becton, Dickinson and Company). All liquid cultures were grown in BHI media supplemented with 25 mg/L Ca^2+ and 12.5 mg/L Mg^2+ to mimic free physiological concentrations of these cations. A 10 mg/mL Ca^2+ stock solution was prepared by dissolving 3.68 g of CaCl2.2H2O in 100 mL of deionized water, and a 10 mg/mL Mg^2+ stock solution was prepared by dissolving 8.36 g of MgCl2.6H2O in 100 mL deionized water. Both stock solutions were filter-sterilized using 0.2 μm pore size cellulose-acetate filters. 2.5 mL of the sterile 10 mg/mL Ca^2+ stock and 1.25 mL of the sterile 10 mg/mL Mg^2+ stock solutions were added per 1 L of autoclaved BHI medium to obtain 25 mg/L Ca^2+ and 12.5 mg/L Mg^2+ ions, respectively.
(§3) General Assay Protocol: Stock bacterial cultures were streaked onto BHI agar plates and grown overnight at 37° C. Fresh aliquots of broth were inoculated with single bacterial colonies and the cultures were grown overnight at 37° C. with shaking (240 rpm) in cation adjusted BHI media. The following morning, the overnight cultures were sub-cultured (1:5 dilution) into fresh aliquots of cation adjusted BHI media and grown at 37° C. for 1-2 hours with shaking. After 2 h, cultures were diluted into fresh media to achieve final OD600 readings of 0.017. Aliquots of these diluted cultures (30 μL) were added to clear, flat-bottom, 384-well polystyrene plates that were stamped with 0.5 μL of test compounds in 20 μL media. […] Plates were sealed with “Breathe Easy” oxygen permeable membranes (Diversified Biotech) and left to incubate at 37° C. without shaking (stagnant assay). OD600 nm readings were taken at either 6-8 h (S. aureus, MRSA, K. pneumonia, E. cloacae, and P. aeruginosa) or 24 h (E. faecium and A. baumannii). A second set of baseline control plates were prepared analogously, but without any bacteria added, to correct for possible compound absorbance and/or precipitation. Plates were then read at 600 nm using a Molecular Devices SpectraMax Plus384 microplate reader. […] Results presented represent the averages of EC50 values obtained from at quadriplicate (duplicate of duplicate) replicates.

[2] = test system: Enterococcus faecium (ATCC 19434); test: Bacterial proliferation assay, E. faecium; assay type: cell-based
Description: as §1, §2, §3

human HSP60/10 = target: T1, human HSP60/10 (Homo sapiens, UniProt P10809); test: HSP60/10-mediated dMDH refolding assay; assay type: biochemical; settings: human HSP60/10-dMDH refolding assay
T1 construct: octa-Histidine tag (TEV-cleavable) (N, cleaved yes); made in house; host or cells: HSP60 in E. coli Rosetta 2 (DE3); HSP10 in Rosetta 2 (DE3) pLysS
T1 sequence (P10809 27-573): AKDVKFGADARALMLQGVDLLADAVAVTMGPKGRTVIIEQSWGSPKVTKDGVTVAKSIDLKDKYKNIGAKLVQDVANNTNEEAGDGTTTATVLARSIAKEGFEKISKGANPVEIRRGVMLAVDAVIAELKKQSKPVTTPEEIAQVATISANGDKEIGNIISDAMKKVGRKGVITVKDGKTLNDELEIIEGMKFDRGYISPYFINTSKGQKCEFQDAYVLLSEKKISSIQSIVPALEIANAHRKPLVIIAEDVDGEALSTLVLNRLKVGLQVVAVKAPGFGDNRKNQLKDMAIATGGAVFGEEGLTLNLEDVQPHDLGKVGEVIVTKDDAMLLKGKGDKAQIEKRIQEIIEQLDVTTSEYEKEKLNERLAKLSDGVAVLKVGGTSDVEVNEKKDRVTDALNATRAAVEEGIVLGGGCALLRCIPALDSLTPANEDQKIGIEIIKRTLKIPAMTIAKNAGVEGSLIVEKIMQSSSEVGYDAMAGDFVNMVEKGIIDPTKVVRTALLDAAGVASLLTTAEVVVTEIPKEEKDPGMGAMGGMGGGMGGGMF
Procedure: Reagent preparation: For these assays, four primary reagent stocks were prepared: 1) GroEUES-dMDH or HSP60/10-dMDH binary complex stock; 2) ATP initiation stock; 3) EDTA quench stock; 4) MDH enzymatic assay stock. Denatured MDH (dMDH) was prepared by 2-fold dilution of MDH (5 mg/ml, soluble pig heart MDH from Roche, product #10127248001) with denaturant buffer (7 M guanidine-HCl, 200 mM Tris, pH 7.4, and 50 mM DTT). MDH was completely denatured by incubating at room temperature for 45 min. The binary complex solutions were prepared by slowly adding the dMDH stock to a stirring stock with GroEL (or HSP60) in folding buffer (50 mM Tris-HCl, pH 7.4, 50 mM KCl, 10 mM MgCl2, and 1 mM DTT), followed by addition of GroES (or HSP10). The binary complex stocks were prepared immediately prior to dispensing into the assay plates and had final protein concentrations of 83.3 nM GroEL (Mr 800 kDa) or HSP60 (Mr 400 kDa), 100 nM GroES or HSP10 (Mr 70 kDa), and 20 nM dMDH in folding buffer. For the ATP initiation stock, ATP solid was diluted into folding buffer to a final concentration of 2.5 mM. Quench solution contained 600 mM EDTA (pH 8.0). The MDH enzymatic assay stock consisted of 20 mM sodium mesoxalate and 2.4 mM NADH in reaction buffer (50 mM Tris-HCl, pH 7.4, 50 mM KCl, and 1 mM DTT).
Assay Protocol: First, 30 μL aliquots of the GroEL/ES-dMDH or HSP60/10-dMDH binary complex stocks were dispensed into clear, 384-well polystyrene plates. […] The chaperonin-mediated refolding cycles were initiated by addition of 20 μL of ATP stock (reagent concentrations during refolding cycle: 50 nM GroEL or HSP60, 60 nM GroES or HSP10, 12 nM dMDH, 1 mM ATP, and compounds of 100 μM to 46 nM, 3-fold dilution series). The refolding reactions were incubated at 37° C. […] Next, the assay was quenched by addition of 10 μL of the EDTA to final concentration of 100 mM. […] A340 nm measurements were recorded at 0.5 minutes (start point) and at successive time points until the amount of NADH consumed reached ˜90% (end point, generally between 20-35 minutes). The differences between the start and end point A340 values were used to calculate the % inhibition of the GroEL/ES or HSP60/10 machinery by the compounds. […] Results presented represent the averages of IC50 values obtained from at least quadriplicate (duplicate of duplicate) replicates.

[3] = test system: Acinetobacter baumannii (ATCC 19606); test: Bacterial proliferation assay, A. baumannii; assay type: cell-based
Description: as §1, §2, §3

[4] = log of EC50 (μM scale), with standard deviation, read-out: log(EC50) Bacterial Proliferation Assay S. aureus Resistant (converted)
[5] = ATCC19434, OD600 at 24 h, read-out: Bacterial Proliferation EC50 E. faecium
[6] = ATCC19434, log of EC50 (μM scale), with standard deviation, read-out: log(EC50) Bacterial Proliferation Assay C. faecium (converted)
[7] = read-out: HSP60/10-dMDH Refolding IC50
[8] = log(IC50) ± standard deviation, read-out: HSP60/10-dMDH Refolding Assay log(IC50) (converted)
[9] = ATCC19606, OD600 at 24 h, read-out: Bacterial Proliferation EC50 A. baumannii
[10] = ATCC19606, log of EC50 (μM scale), with standard deviation, read-out: log(EC50) Bacterial Proliferation Assay A. baumannii (converted)

O=C(Nc1cccc(Cl)c1)c1ccccc1 [Compound 25, N-(3-Chlorophenyl)benzamide]
> 100 µM: EC50 [1, 4] | EC50 [2, 5] | EC50 [2, 6] | IC50 (human HSP60/10; [7]) | IC50 (human HSP60/10; [8]) | EC50 [3, 9] | EC50 [3, 10]

O=C(Nc1ccccc1)c1cc(Br)cc(Br)c1 [Compound 26, 3,5-Dibromo-N-phenylbenzamide]
> 100 µM: EC50 [1, 4] | EC50 [2, 5] | EC50 [2, 6] | IC50 (human HSP60/10; [7]) | IC50 (human HSP60/10; [8]) | EC50 [3, 9] | EC50 [3, 10]

O=C(Nc1ccccc1)c1cccc(Br)c1 [Compound 27, 3-Bromo-N-phenylbenzamide]
> 100 µM: EC50 [1, 4] | EC50 [2, 5] | EC50 [2, 6] | IC50 (human HSP60/10; [7]) | IC50 (human HSP60/10; [8]) | EC50 [3, 9] | EC50 [3, 10]

COc1c(Br)cc(Br)cc1C(=O)Nc1ccc(Sc2nc3ccccc3s2)c(Cl)c1 [Compound 29, N-(4-(Benzo[d]thiazol-2-ylthio)-3-chlorophenyl)-3,5-dibromo-2-methoxybenzamide]
> 100 µM: EC50 [1, 4] | EC50 [2, 5] | EC50 [2, 6] | IC50 (human HSP60/10; [7]) | IC50 (human HSP60/10; [8]) | EC50 [3, 9] | EC50 [3, 10]

COc1c(Br)cccc1C(=O)Nc1ccc(Sc2nc3ccccc3s2)c(Cl)c1 [Compound 30, N-(4-(Benzo[d]thiazol-2-ylthio)-3-chlorophenyl)-3-bromo-2-methoxybenzamide]
> 100 µM: EC50 [1, 4] | EC50 [2, 5] | EC50 [2, 6] | IC50 (human HSP60/10; [7]) | IC50 (human HSP60/10; [8]) | EC50 [3, 9] | EC50 [3, 10]

COc1ccc(Br)cc1C(=O)Nc1ccc(Sc2nc3ccccc3s2)c(Cl)c1 [Compound 31, N-(4-(Benzo[d]thiazol-2-ylthio)-3-chlorophenyl)-5-bromo-2-methoxybenzamide]
> 100 µM: EC50 [1, 4] | EC50 [2, 5] | EC50 [2, 6] | IC50 (human HSP60/10; [7]) | IC50 (human HSP60/10; [8]) | EC50 [3, 9] | EC50 [3, 10]

COc1ccccc1C(=O)Nc1ccc(Sc2nc3ccccc3s2)c(Cl)c1 [Compound 32, N-(4-(Benzo[d]thiazol-2-ylthio)-3-chlorophenyl)-2-methoxybenzamide]
> 100 µM: EC50 [1, 4] | EC50 [2, 5] | EC50 [2, 6] | IC50 (human HSP60/10; [7]) | IC50 (human HSP60/10; [8]) | EC50 [3, 9] | EC50 [3, 10]

COc1c(Br)cc(Br)cc1C(=O)Nc1ccc(Sc2nc3ccccc3s2)cc1 [Compound 33, N-(4-(Benzo[d]thiazol-2-ylthio)phenyl)-3,5-dibromo-2-methoxybenzamide]
> 100 µM: EC50 [1, 4] | EC50 [2, 5] | EC50 [2, 6] | IC50 (human HSP60/10; [7]) | IC50 (human HSP60/10; [8]) | EC50 [3, 9] | EC50 [3, 10]

COc1c(Br)cccc1C(=O)Nc1ccc(Sc2nc3ccccc3s2)cc1 [Compound 34, N-(4-(Benzo[d]thiazol-2-ylthio)phenyl)-3-bromo-2-methoxybenzamide]
> 100 µM: EC50 [1, 4] | EC50 [2, 5] | EC50 [2, 6] | IC50 (human HSP60/10; [7]) | IC50 (human HSP60/10; [8]) | EC50 [3, 9] | EC50 [3, 10]

COc1ccc(Br)cc1C(=O)Nc1ccc(Sc2nc3ccccc3s2)cc1 [Compound 35, N-(4-(Benzo[d]thiazol-2-ylthio)phenyl)-5-bromo-2-methoxybenzamide]
> 100 µM: EC50 [1, 4] | EC50 [2, 5] | EC50 [2, 6] | IC50 (human HSP60/10; [7]) | IC50 (human HSP60/10; [8]) | EC50 [3, 9] | EC50 [3, 10]

COc1ccccc1C(=O)Nc1ccc(Sc2nc3ccccc3s2)cc1 [Compound 36, N-(4-(Benzo[d]thiazol-2-ylthio)phenyl)-2-methoxybenzamide]
> 100 µM: EC50 [1, 4] | EC50 [2, 5] | EC50 [2, 6] | IC50 (human HSP60/10; [7]) | IC50 (human HSP60/10; [8]) | EC50 [3, 9] | EC50 [3, 10]

COc1c(Br)cc(Br)cc1C(=O)Nc1cccc(Cl)c1 [Compound 37, 3,5-Dibromo-N-(3-chlorophenyl)-2-methoxybenzamide]
> 100 µM: EC50 ([1]; OD600 at 6-8 h, read-out: Bacterial Proliferation EC50 S. aureus Resistant) | EC50 [1, 4] | EC50 [2, 5] | EC50 [2, 6] | IC50 (human HSP60/10; [7]) | IC50 (human HSP60/10; [8]) | EC50 [3, 9] | EC50 [3, 10]

COc1c(Br)cccc1C(=O)Nc1cccc(Cl)c1 [Compound 38]
> 100 µM: EC50 [1, 4] | EC50 [2, 5] | EC50 [2, 6] | IC50 (human HSP60/10; [7]) | IC50 (human HSP60/10; [8]) | EC50 [3, 9] | EC50 [3, 10]

COc1ccc(Br)cc1C(=O)Nc1cccc(Cl)c1 [Compound 39, 5-Bromo-N-(3-chlorophenyl)-2-methoxybenzamide]
> 100 µM: EC50 [1, 4] | EC50 [2, 5] | EC50 [2, 6] | IC50 (human HSP60/10; [7]) | IC50 (human HSP60/10; [8]) | EC50 [3, 9] | EC50 [3, 10]

COc1ccccc1C(=O)Nc1cccc(Cl)c1 [Compound 40, N-(3-Chlorophenyl)-2-methoxybenzamide]
> 100 µM: EC50 [1, 4] | EC50 [2, 5] | EC50 [2, 6] | IC50 (human HSP60/10; [7]) | IC50 (human HSP60/10; [8]) | EC50 [3, 9] | EC50 [3, 10]

COc1c(Br)cc(Br)cc1C(=O)Nc1ccccc1 [Compound 41, 3,5-Dibromo-2-methoxy-N-phenylbenzamide]
> 100 µM: EC50 [1, 4] | EC50 [2, 5] | EC50 [2, 6] | IC50 (human HSP60/10; [7]) | IC50 (human HSP60/10; [8]) | EC50 [3, 9] | EC50 [3, 10]
